Read-outs that look alike come from different tables or passages of the source.
What was measured:
[1] = cited from earlier work
[2] = GC-head space: effect of enablers on the encapsulation of menthol and limonene combination by PVP; assay type: physicochemical; settings: for GC-HS area (% of control sample) Limonene / GC-HS area (% of control sample) Menthol / GC-HS area Limonene / GC-HS area Menthol: menthol + limonene with PVP
[3] = UV-vis spectroscopy of enabler interaction with PVP (absorbance at 236 nm); assay type: physicochemical
[4] = GC-head space: effect of enablers on the encapsulation of menthol by PVP; assay type: physicochemical; settings: for ability of enabler to encapsulate menthol: GC-Head space against control; for ability of enabler to encapsulate menthol / GC-HS area Menthol: with PVP; for GC-HS area (% of control sample): menthol, control without PVP
[5] = GC head space of benefit agents in the presence of PVP and BHT; assay type: physicochemical

CCCCCCCCCCCCN [Dodecyl amine]
LogP value [1]: 4.76

Oc1cc(Cl)ccc1Oc1ccc(Cl)cc1Cl [Triclosan]
GC-HS area (% of control sample) Limonene ([2]; enabler 0.05%): 95.29 % of control sample | GC-HS area (% of control sample) Menthol ([2]; enabler 0.05%): 3.59 % of control sample | GC-HS area Limonene ([2]; enabler 0.05%): 1925700 | GC-HS area Menthol ([2]; enabler 0.05%): 759 | GC-HS area (% of control sample) Limonene ([2]; enabler 0.1%): 99.50 % of control sample | GC-HS area (% of control sample) Menthol ([2]; enabler 0.1%): 1.30 % of control sample | GC-HS area Limonene ([2]; enabler 0.1%): 1916012 | GC-HS area Menthol ([2]; enabler 0.1%): 274 | GC-HS area (% of control sample) Limonene ([2]; enabler 0.5%): 105.82 % of control sample | GC-HS area (% of control sample) Menthol ([2]; enabler 0.5%): 3.98 % of control sample | GC-HS area Limonene ([2]; enabler 0.5%): 2027488 | GC-HS area Menthol ([2]; enabler 0.5%): 841 | Absorbance [3]: 0.961 | interaction of enabler with PVP [3]: stronger interaction with PVP | ability of enabler to encapsulate menthol [4]: effectively encapsulate menthol | GC-HS area Menthol ([4]; enabler concentration 0.05%): 4977 | GC-HS area Menthol ([4]; enabler concentration 0.1%): 3482 | GC-HS area Menthol ([4]; enabler concentration 0.3%): 6103 | GC-HS area (% of control sample) ([4]; enabler 0.05%): 6.63 % of control sample | GC-HS area (% of control sample) ([4]; enabler 0.1%): 4.64 % of control sample | GC-HS area (% of control sample) ([4]; enabler 0.3%): 8.14 % of control sample

CCCCC(CC)COC(=O)C=Cc1ccc(OC)cc1 (stereo not shown) [Octyl methoxy cinnamate]
LogP value [1]: 5.8

CC1CCC(C(C)C)C(O)C1 (stereo not shown) [Menthol]
selectivity of encapsulation in menthol and limonene combination ([2]; PVP with enablers): preferentially encapsulated as against limonene

CCCCCCCCCCN [decyl amine]
LogP value [1]: 1.92

CC1=CCC2CC1C2(C)C (stereo not drawn) [α-Pinene]
encapsulation by PVP in the presence of BHT as enabler [5]: not encapsulated | LogP value [1]: 4.83

CCCCCCCCCCCCCCCCO [Cetyl alcohol, reference compound]
interaction of the enabler with the polymer ([3]; UV-vis, concentration not given): No interaction | LogP value [1]: 7.25

CC(=O)O [Acetic acid]
GC-HS area (% of control sample) Limonene ([2]; enabler 0.05%): 91.77 % of control sample | GC-HS area (% of control sample) Menthol ([2]; enabler 0.05%): 0.50 % of control sample | GC-HS area Limonene ([2]; enabler 0.05%): 1860568 | GC-HS area Menthol ([2]; enabler 0.05%): 105 | GC-HS area (% of control sample) Limonene ([2]; enabler 0.1%): 112.66 % of control sample | GC-HS area (% of control sample) Menthol ([2]; enabler 0.1%): 0.82 % of control sample | GC-HS area Limonene ([2]; enabler 0.1%): 2096101 | GC-HS area Menthol ([2]; enabler 0.1%): 174 | GC-HS area (% of control sample) Limonene ([2]; enabler 0.5%): 97.95 % of control sample | GC-HS area (% of control sample) Menthol ([2]; enabler 0.5%): 1.89 % of control sample | GC-HS area Limonene ([2]; enabler 0.5%): 2053175 | GC-HS area Menthol ([2]; enabler 0.5%): 399 | ability of enabler to encapsulate menthol [4]: effectively encapsulate menthol | GC-HS area Menthol ([4]; enabler concentration 0.05%): 708 | GC-HS area Menthol ([4]; enabler concentration 0.1%): 1030 | GC-HS area Menthol ([4]; enabler concentration 0.5%): 925 | GC-HS area (% of control sample) ([4]; enabler 0.05%): 0.94 % of control sample | GC-HS area (% of control sample) ([4]; enabler 0.1%): 1.37 % of control sample | GC-HS area (% of control sample) ([4]; enabler 0.5%): 1.23 % of control sample

CC(C)=O [Acetone]
GC-HS area (% of control sample) Limonene ([2]; enabler 0.05%): 88.91 % of control sample | GC-HS area (% of control sample) Menthol ([2]; enabler 0.05%): 1.04 % of control sample | GC-HS area Limonene ([2]; enabler 0.05%): 1825472 | GC-HS area Menthol ([2]; enabler 0.05%): 220 | GC-HS area (% of control sample) Limonene ([2]; enabler 0.1%): 103.37 % of control sample | GC-HS area (% of control sample) Menthol ([2]; enabler 0.1%): 1.74 % of control sample | GC-HS area Limonene ([2]; enabler 0.1%): 1886916 | GC-HS area Menthol ([2]; enabler 0.1%): 369 | GC-HS area (% of control sample) Limonene ([2]; enabler 0.5%): 106.24 % of control sample | GC-HS area (% of control sample) Menthol ([2]; enabler 0.5%): 4.21 % of control sample | GC-HS area Limonene ([2]; enabler 0.5%): 2004605 | GC-HS area Menthol ([2]; enabler 0.5%): 891 | ability of enabler to encapsulate menthol [4]: effectively encapsulate menthol | GC-HS area Menthol ([4]; enabler concentration 0.05%): 541 | GC-HS area Menthol ([4]; enabler concentration 0.1%): 179 | GC-HS area Menthol ([4]; enabler concentration 0.5%): 199 | GC-HS area (% of control sample) ([4]; enabler 0.05%): 0.72 % of control sample | GC-HS area (% of control sample) ([4]; enabler 0.1%): 0.24 % of control sample | GC-HS area (% of control sample) ([4]; enabler 0.5%): 0.27 % of control sample

CCCCCCCCCCCC(=O)OC [methyl laurate]
LogP value [1]: 5.41

Cc1cc(C(C)(C)C)c(O)c(C(C)(C)C)c1 [BHT, Butylated hydroxy toluene]
GC-HS area (% of control sample) Limonene ([2]; enabler 0.05%): 108.95 % of control sample | GC-HS area (% of control sample) Menthol ([2]; enabler 0.05%): 23.30 % of control sample | GC-HS area Limonene ([2]; enabler 0.05%): 1813235 | GC-HS area Menthol ([2]; enabler 0.05%): 4929 | GC-HS area (% of control sample) Limonene ([2]; enabler 0.1%): 102.91 % of control sample | GC-HS area (% of control sample) Menthol ([2]; enabler 0.1%): 30.48 % of control sample | GC-HS area Limonene ([2]; enabler 0.1%): 1866057 | GC-HS area Menthol ([2]; enabler 0.1%): 6449 | GC-HS area (% of control sample) Limonene ([2]; enabler 0.5%): 108.30 % of control sample | GC-HS area (% of control sample) Menthol ([2]; enabler 0.5%): 58.28 % of control sample | GC-HS area Limonene ([2]; enabler 0.5%): 2020945 | GC-HS area Menthol ([2]; enabler 0.5%): 12330 | Absorbance ([3]; 236 nm, enabler 10 ppm with PVP in 95% v/v ethanol): 0.155 | interaction of enabler with PVP ([3]; UV-vis, 10 ppm): comparatively lower activities | GC-HS area Menthol ([4]; enabler concentration 0.05%): 10608 | GC-HS area Menthol ([4]; enabler concentration 0.1%): 10773 | GC-HS area Menthol ([4]; enabler concentration 0.5%): 8798 | GC-HS area (% of control sample) ([4]; enabler 0.05%): 14.14 % of control sample | GC-HS area (% of control sample) ([4]; enabler 0.1%): 14.36 % of control sample | GC-HS area (% of control sample) ([4]; enabler 0.5%): 11.73 % of control sample
